Read-outs that look alike come from different tables or passages of the source.
Columns and labels:
[1] = test system: HCT116 cells; assay: Inhibition of HCT116 cells (MTS cell proliferation); type: cell-based; conditions: for OD value 1 / OD value 2: 490 nm; for OD value 1 / OD value 2 / inhibition at 0.4 µM / inhibition at 0.8 µM / inhibition at 1.6 µM / inhibition at 3.2 µM / inhibition at 6.25 µM / inhibition at 12.5 µM / inhibition at 25 µM / inhibition at 50 µM / inhibition at 100 µM: 72 h; for inhibition at 0.4 µM / inhibition at 0.8 µM / inhibition at 1.6 µM / inhibition at 3.2 µM / inhibition at 6.25 µM / inhibition at 12.5 µM / inhibition at 25 µM / inhibition at 50 µM / inhibition at 100 µM / IC50: Homo sapiens, HCT-116
Experimental: Inhibition of HCT116 Cells Cells: HCT116 cells, ATCC Passage unknown, Mycoplasma free. Medium: DMEM Medium (GIBCO Cat #11995073) supplemented with 10% fetal bovine serum (Hyclone Cat #SH30396.03). Seeding: 750 cells/well (100 μL) into 96-wells plate, incubated overnight at 37° C. in a humidified, 5% CO2 atmosphere. Treatment: Test compounds and Gemcitabine were prepared in a serial dilution (1:2) by culture medium. Fifty microliters (50 uL) of serially diluted solutions were added into each well. The final concentrations of the positive control and test compounds were shown in the graphs. The cells were incubated for 72 hours after addition of the test compounds. MTS: 15 uL of MTS solution (Promega Cat #G5430) was added into each well and incubated with cells for 4 hours at 37° C. in a humidified, 5% CO2 atmosphere. Measurement: Absorbance at 490 nm was measured using MD Spectramax Plus384 spectrophotometer. The regression curves were calculated by the GraphPad Prism 5 using “log(inhibitor) vs response—variable slope”. Calculation: % of inhibition=(ODzero ctrl−OD compound)/ODzero ctrl*100.

[2] = test system: LNCaP; assay: Inhibition of LNCaP cells (MTS cell proliferation); type: cell-based; conditions: for OD value 1 / OD value 2: 490 nm; for OD value 1 / OD value 2 / inhibition at 0.4 µM / inhibition at 0.8 µM / inhibition at 1.6 µM / inhibition at 3.2 µM / inhibition at 6.25 µM / inhibition at 12.5 µM / inhibition at 25 µM / inhibition at 50 µM / inhibition at 100 µM: 72 h; for inhibition at 0.4 µM / inhibition at 0.8 µM / inhibition at 1.6 µM / inhibition at 3.2 µM / inhibition at 6.25 µM / inhibition at 12.5 µM / inhibition at 25 µM / inhibition at 50 µM / inhibition at 100 µM / IC50: Homo sapiens
Experimental: Inhibition of LNCaP Cells Cells: LNCaP, ATCC Passage unknown, Mycoplasma free. Medium: RPMI-1640 Medium (GIBCO Cat #22400121) supplemented with 10% fetal bovine serum (Hyclone Cat #SH30396.03). Seeding: 3,000 cells/well (100 uL) into 96-wells plate, incubated overnight at 37° C. in a humidified, 5% CO2 atmosphere. Treatment: Test compounds and Gemcitabine were prepared in a serial dilution (1:2) by culture medium. Fifty microliters (50 uL) of serially diluted solutions were added into each well. The final concentrations of the positive control and test compounds were shown in the graphs. The cells were incubated for 72 hours after addition of the test compounds. MTS: 15 uL of MTS solution (Promega Cat #G5430) was added into each well and incubated with cells for 4 hours at 37° C. in a humidified, 5% CO2 atmosphere. Measurement: Absorbance at 490 nm was measured using MD Spectramax Plus384 spectrophotometer. The regression curves were calculated by the GraphPad Prism 5 using “log(inhibitor) vs response—variable slope”. Calculation: % of inhibition+(AVE zero ctrl−AVE compound)/AVE zero ctrl*100.

Nc1ccn([C@@H]2O[C@H](CO)[C@@H](O)C2(F)F)c(=O)n1 [Gemcitabine]
OD value 1 ([1]; 0.400 uM, replicate 1): 0.799
OD value 2 ([1]; 0.400 uM, replicate 2): 0.766
OD value 1 ([1]; 0.800 uM, replicate 1): 0.619
OD value 2 ([1]; 0.800 uM, replicate 2): 0.723
OD value 1 ([1]; 1.600 uM, replicate 1): 0.452
OD value 2 ([1]; 1.600 uM, replicate 2): 0.535
OD value 1 ([1]; 3.200 uM, replicate 1): 0.083
OD value 2 ([1]; 3.200 uM, replicate 2): 0.083
OD value 1 ([1]; 6.250 uM, replicate 1): 0.076
OD value 2 ([1]; 6.250 uM, replicate 2): 0.065
OD value 1 ([1]; 12.500 uM, replicate 1): 0.065
OD value 2 ([1]; 12.500 uM, replicate 2): 0.063
OD value 1 ([1]; 25.000 uM, replicate 1): 0.075
OD value 2 ([1]; 25.000 uM, replicate 2): 0.061
OD value 1 ([1]; 50.000 uM, replicate 1): 0.036
OD value 2 ([1]; 50.000 uM, replicate 2): 0.046
OD value 1 ([1]; 100.000 uM, replicate 1): 0.037
OD value 2 ([1]; 100.000 uM, replicate 2): 0.037
inhibition at 0.4 µM ([1]; 0.400 uM, replicate 1, read-out: % of inhibition 1): 18.8%
inhibition at 0.4 µM ([1]; 0.400 uM, replicate 2, read-out: % of inhibition 2): 20.9%
inhibition at 0.8 µM ([1]; 0.800 uM, replicate 1, read-out: % of inhibition 1): 37.2%
inhibition at 0.8 µM ([1]; 0.800 uM, replicate 2, read-out: % of inhibition 2): 25.3%
inhibition at 1.6 µM ([1]; 1.600 uM, replicate 1, read-out: % of inhibition 1): 54.1%
inhibition at 1.6 µM ([1]; 1.600 uM, replicate 2, read-out: % of inhibition 2): 44.7%
inhibition at 3.2 µM ([1]; 3.200 uM, replicate 1, read-out: % of inhibition 1): 91.6%
inhibition at 3.2 µM ([1]; 3.200 uM, replicate 2, read-out: % of inhibition 2): 91.4%
inhibition at 6.25 µM ([1]; 6.250 uM, replicate 1, read-out: % of inhibition 1): 92.3%
inhibition at 6.25 µM ([1]; 6.250 uM, replicate 2, read-out: % of inhibition 2): 93.3%
inhibition at 12.5 µM ([1]; 12.500 uM, replicate 1, read-out: % of inhibition 1): 93.4%
inhibition at 12.5 µM ([1]; 12.500 uM, replicate 2, read-out: % of inhibition 2): 93.5%
inhibition at 25 µM ([1]; 25.000 uM, replicate 1, read-out: % of inhibition 1): 92.4%
inhibition at 25 µM ([1]; 25.000 uM, replicate 2, read-out: % of inhibition 2): 93.7%
inhibition at 50 µM ([1]; 50.000 uM, replicate 1, read-out: % of inhibition 1): 96.4%
inhibition at 50 µM ([1]; 50.000 uM, replicate 2, read-out: % of inhibition 2): 95.2%
inhibition at 100 µM ([1]; 100.000 uM, replicate 1, read-out: % of inhibition 1): 96.3%
inhibition at 100 µM ([1]; 100.000 uM, replicate 2, read-out: % of inhibition 2): 96.2%
IC50 ([1]; Table 17, read-out: HCT-116* 50% inhibition concentration): 1290 nM
IC50 ([1]; Table 26, HCT116, 72 hours, read-out: 50% viability conc.): 1290 nM
IC50 ([1]; Table 26, HCT116, 72 hours, read-out: IC50): 1420 nM
Maximal inhibition % ([1]; Table 26, HCT116, 72 hours): 96.25%
OD value 1 ([2]; 0.400 uM, replicate 1): 0.578
OD value 2 ([2]; 0.400 uM, replicate 2): 0.662
OD value 1 ([2]; 0.800 uM, replicate 1): 0.459
OD value 2 ([2]; 0.800 uM, replicate 2): 0.434
OD value 1 ([2]; 1.600 uM, replicate 1): 0.448
OD value 2 ([2]; 1.600 uM, replicate 2): 0.472
OD value 1 ([2]; 3.200 uM, replicate 1): 0.322
OD value 2 ([2]; 3.200 uM, replicate 2): 0.337
OD value 1 ([2]; 6.250 uM, replicate 1): 0.182
OD value 2 ([2]; 6.250 uM, replicate 2): 0.190
OD value 1 ([2]; 12.500 uM, replicate 1): 0.166
OD value 2 ([2]; 12.500 uM, replicate 2): 0.173
OD value 1 ([2]; 25.000 uM, replicate 1): 0.101
OD value 2 ([2]; 25.000 uM, replicate 2): 0.177
OD value 1 ([2]; 50.000 uM, replicate 1): 0.124
OD value 2 ([2]; 50.000 uM, replicate 2): 0.202
OD value 1 ([2]; 100.000 uM, replicate 1): 0.112
OD value 2 ([2]; 100.000 uM, replicate 2): 0.197
inhibition at 0.4 µM ([2]; LNCaP, 0.400 uM, replicate 1, read-out: % of inhibition 1): 12.8%
inhibition at 0.4 µM ([2]; LNCaP, 0.400 uM, replicate 2, read-out: % of inhibition 2): 13.6%
inhibition at 0.8 µM ([2]; LNCaP, 0.800 uM, replicate 1, read-out: % of inhibition 1): 30.8%
inhibition at 0.8 µM ([2]; LNCaP, 0.800 uM, replicate 2, read-out: % of inhibition 2): 43.4%
inhibition at 1.6 µM ([2]; LNCaP, 1.600 uM, replicate 1, read-out: % of inhibition 1): 32.4%
inhibition at 1.6 µM ([2]; LNCaP, 1.600 uM, replicate 2, read-out: % of inhibition 2): 38.4%
inhibition at 3.2 µM ([2]; LNCaP, 3.200 uM, replicate 1, read-out: % of inhibition 1): 51.4%
inhibition at 3.2 µM ([2]; LNCaP, 3.200 uM, replicate 2, read-out: % of inhibition 2): 56%
inhibition at 6.25 µM ([2]; LNCaP, 6.250 uM, replicate 1, read-out: % of inhibition 1): 72.5%
inhibition at 6.25 µM ([2]; LNCaP, 6.250 uM, replicate 2, read-out: % of inhibition 2): 75.2%
inhibition at 12.5 µM ([2]; LNCaP, 12.500 uM, replicate 1, read-out: % of inhibition 1): 75%
inhibition at 12.5 µM ([2]; LNCaP, 12.500 uM, replicate 2, read-out: % of inhibition 2): 77.4%
inhibition at 25 µM ([2]; LNCaP, 25.000 uM, replicate 1, read-out: % of inhibition 1): 84.8%
inhibition at 25 µM ([2]; LNCaP, 25.000 uM, replicate 2, read-out: % of inhibition 2): 76.9%
inhibition at 50 µM ([2]; LNCaP, 50.000 uM, replicate 1, read-out: % of inhibition 1): 81.3%
inhibition at 50 µM ([2]; LNCaP, 50.000 uM, replicate 2, read-out: % of inhibition 2): 73.6%
inhibition at 100 µM ([2]; LNCaP, 100.000 uM, replicate 1, read-out: % of inhibition 1): 83.1%
inhibition at 100 µM ([2]; LNCaP, 100.000 uM, replicate 2, read-out: % of inhibition 2): 74.3%
IC50 ([2]; LNCaP, Table 18, read-out: LNCaP* 50% inhibition concentration): 1970 nM
IC50 ([2]; Table 26, LNCaP, 72 hours, read-out: 50% viability conc.): 1970 nM
IC50 ([2]; Table 26, LNCaP, 72 hours, read-out: IC50): 2380 nM
Maximal inhibition % ([2]; Table 26, LNCaP, 72 hours): 78.69%

— patent US9073903B2, “Imidazole-2,4-dione inhibitors of casein kinase 1” (Jasco Pharmaceuticals, LLC, priority 2010, dated 2015)
